Laboratory results from US10829487B2, “Benzylamino substituted pyridopyrimidinones and derivatives as SOS1 inhibitors” (Boehringer Ingelheim International GmbH, priority 2017, dated 2020).
pIC50: −log10 of the molar value.

What was measured:
CYP3A4 = CYP3A4 (Homo sapiens (Human), UniProt P08684); assay: Time dependent inhibition of CYP3A4 assay (TDI 3A4); type: in vitro ADME; details: hydroxy-midazolam formation after 30 min relative to 0 min preincubation; 25 uM compound; human liver microsomes; midazolam substrate
Protocol: Time Dependent Inhibition of CYP3A4 Assay (TDI 3A4):
After preincubation, the incubate is diluted 1:10 and the substrate midazolam is added for the main incubation (15 min). The main incubation is quenched with acetonitrile and the formation of hydroxy-midazolam is quantified via LC/MS-MS. The formation of hydroxy-midazolam from the 30 min preincubation relative to the formation from the 0 min preincubation is used as a readout. Values of less than 100% mean that the substrate midazolam is metabolized to a lower extend upon 30 min preincubation compared to 0 min preincubation. In general low effects upon 30 min preincubation are desired (corresponding to values close to 100%)

[1] = target: protein-protein interaction between SOS1 and KRAS G12D (Homo sapiens (Human), UniProt Q07889); assay: KRAS::SOS1 AlphaScreen Binding Assay
Outline: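 Nucleotide-exchange interaction read by AlphaScreen (GSH acceptor / streptavidin donor beads, 10 μg/mL each): 10 nM KRAS G12D(1-169)-Avi, 10 μM GDP, 5 nM GST-SOS1(564-1049), 1% DMSO. Compound preincubated 30 min, then beads 60 min at RT in the dark; 11-point 1:5 series from 100 μM, duplicates; IC50 by 4-parameter logistic fit.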

[2] = Metabolic (microsomal) stability assay, mouse liver microsomes (MLM); type: in vitro ADME; details: 1 μM test compound, 37° C.
Protocol: (§1) Metabolic (Microsomal) Stability Assay: The metabolic degradation of the test compound is assayed at 37° C. with pooled liver microsomes (mouse (MLM), rat (RLM) or human (HLM)). The final incubation volume of 74 μL per time point contains TRIS buffer (pH 7.5; 0.1 M), magnesium chloride (6.5 mM), microsomal protein (0.5 mg/mL for mouse/rat, 1 mg/mL for human specimens) and the test compound at a final concentration of 1 μM. Following a short preincubation period at 37° C., the reactions are initiated by addition of 8 μL beta-nicotinamide adenine dinucleotide phosphate, reduced form (NADPH, 10 mM) and terminated by transfering an aliquot into solvent after different time points. Additionally, the NADPH-independent degradation is monitored in incubations without NADPH, terminated at the last time point by addition of acetonitrile. The quenched incubations are pelleted by centrifugation (1811 g, 5 min). An aliquot of the supernatant is assayed by LC-MS/MS for the amount of parent compound. In vitro intrinsic clearance (CLint, in vitro) is calculated from the time course of the disappearance of the test drug during the microsomal incubation. Each plot is fitted to the first-order elimination rate constant as C(t)=C0*exp(−ke*t), where C(t) and C0 are the concentration of unchanged test drug at incubation time t and that at preincubation and ke is the disappearance rate constant of the unchanged drug. Subsequently, CLint, in vitro (μL min^−1·amount protein) values are converted to CLint, in vitro (mL min^−1·kg^−1) for the whole body. CLint, in vitro data are scaled up using physiological parameters. For better across species comparison the predicted clearance is expressed as percent of the liver blood flow [% QH] in the individual species. In general, high stability (corresponding to low % QH) of the compounds across species is desired.

[3] = Metabolic (microsomal) stability assay, human liver microsomes (HLM); type: in vitro ADME; details: 1 μM test compound, 37° C.
Protocol: as §1

[4] = Metabolic (microsomal) stability assay, rat liver microsomes (RLM); type: in vitro ADME; details: 1 μM test compound, 37° C.
Protocol: as §1

[5] = test system: ERK phosphorylation in DLD-1 cells (KRAS G13D); assay: ERK Phosphorylation Assay (AlphaLISA SureFire Ultra p-ERK1/2); type: cell-based; details: Homo sapiens, 1 h compound, EGF 50 ng/mL 10 min, read-out: pERK
Protocol: ERK Phosphorylation Assay
Low IC50 values are indicative of high potency of the SOS1 inhibitor compounds in this assay setting.
ERK phosphorylation assays are performed using the following human cell lines: DLD-1 (ATCC CCL-221): human colon cancer with a KRAS G13D mutation;
DLD-1 cells (ATCC CCL-221) are seeded at 50,000 cells per well in/60 μL of RPMI with 10% FBS, non-essential amino acids, pyruvate and glutamax in Greiner TC 384 plates. The cells are incubated for 1 h at room temperature and then incubated overnight in an incubator at 37° C. and 5% CO2 in a humidified atmosphere. 60 nL compound solution (10 mM DMSO stock solution) is then added using a Labcyte Echo 550 device. After a 1 h incubation in the aforementioned incubator, 3 μL Epidermal Growth Factor (EGF, final concentration 50 ng/mL) is added. 10 minutes later the medium is removed, and the cells lysed by addition of 20 μL of 1.6-fold lysis buffer from the AlphaLISA SureFire Ultra pERK1/2 (Thr202/Tyr204) Assay Kit with added protease inhibitors, 100 nM trametinib+100 nM staurosporine. After 20 minutes of incubation at room temperature with shaking, 6 μL of each lysate sample is transferred to a 384-well Proxiplate and analyzed for pERK (Thr202/Tyr204) with the AlphaLISA SureFire Ultra pERK1/2 (Thr202/Tyr204) Assay Kit. 3 μL Acceptor Mix and 3 μL Donor Mix are added under subdued light and incubated for 2 h at room temperature in the dark, before the signal is measured on a Perkin Elmer Envision plate reader using 384 AlphaScreen settings for Proxiplates. Data are fitted by iterative calculation with variable hill slope. The sigmoidal curve slope is fitted using a default fitting curve to ascertain IC50 values.

[6] = Table 20, KRAS::SOS1 AlphaScreen (SOS1 / KRAS G12D)
[7] = KRAS G12D::SOS1 AlphaScreen, measured without EDTA unless marked with an asterisk

Chain of CYP3A4 (P08684 whole entry): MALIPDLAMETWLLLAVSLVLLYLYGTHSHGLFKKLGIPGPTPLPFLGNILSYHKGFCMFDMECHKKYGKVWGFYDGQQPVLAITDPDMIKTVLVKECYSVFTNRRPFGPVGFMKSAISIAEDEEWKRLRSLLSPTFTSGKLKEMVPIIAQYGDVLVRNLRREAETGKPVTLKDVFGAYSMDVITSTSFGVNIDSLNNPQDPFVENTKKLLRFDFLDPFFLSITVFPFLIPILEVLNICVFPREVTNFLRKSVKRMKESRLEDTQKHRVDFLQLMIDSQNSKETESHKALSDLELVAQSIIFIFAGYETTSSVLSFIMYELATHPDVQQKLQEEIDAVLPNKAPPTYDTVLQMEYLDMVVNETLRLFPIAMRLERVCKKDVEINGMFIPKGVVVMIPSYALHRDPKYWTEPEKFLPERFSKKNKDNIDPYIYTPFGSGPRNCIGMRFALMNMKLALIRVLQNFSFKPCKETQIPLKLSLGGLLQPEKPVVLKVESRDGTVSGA
Chain of protein-protein interaction between SOS1 and KRAS G12D (Q07889 564-1049, stated change not applied): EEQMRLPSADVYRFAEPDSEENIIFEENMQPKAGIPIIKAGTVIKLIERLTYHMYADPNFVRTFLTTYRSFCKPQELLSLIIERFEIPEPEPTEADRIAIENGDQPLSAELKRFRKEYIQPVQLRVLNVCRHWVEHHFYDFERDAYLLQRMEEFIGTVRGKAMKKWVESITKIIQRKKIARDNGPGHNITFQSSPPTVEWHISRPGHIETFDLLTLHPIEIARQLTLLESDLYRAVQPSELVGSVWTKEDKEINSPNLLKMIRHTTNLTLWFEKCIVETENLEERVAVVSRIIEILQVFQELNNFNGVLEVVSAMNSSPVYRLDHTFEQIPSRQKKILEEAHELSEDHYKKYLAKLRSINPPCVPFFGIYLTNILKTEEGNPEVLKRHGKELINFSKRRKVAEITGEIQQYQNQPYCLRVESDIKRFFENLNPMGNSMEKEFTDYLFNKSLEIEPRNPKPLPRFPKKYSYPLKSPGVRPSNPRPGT

SMILES | TDI 3A4 [%] (CYP3A4) | pIC50 [1, 6] | MLM [% QH] [2] [% QH] | HLM [% QH] [3] [% QH] | RLM [% QH] [4] [% QH] | pIC50 [5] | pIC50 [1, 7]
Cc1nc(N[C@H](C)c2cccc(C(F)F)c2C)c2cn(C3CCC3)c(=O)cc2n1 [I-22] | 87 | 8.22 |  |  |  |  | 
Cc1nc(N[C@H](C)c2cccc(C(F)F)c2F)c2cn(C3(CF)CC3)c(=O)c(F)c2n1 [I-81] | 85 | 8.22 | 64 | <24 | <23 |  | 
Cc1nc(N[C@H](C)c2cccc(C(C)(F)F)c2F)c2cn(C3(C(F)F)CC3)c(=O)cc2n1 [I-54] | 84 | 8.30 | 55 | <24 | <23 |  | 
Cc1nc(N[C@H](C)c2cccc(C(C)(F)F)c2F)c2cn(C3(CF)CC3)c(=O)cc2n1 [I-53] | 84 | 8.40 |  |  |  | 7.13 | 
Cc1nc(N[C@H](C)c2cccc(C(F)(F)F)c2)c2cn(C3(C)CC3)c(=O)cc2n1 [I-25] | 90 | 7.89 | <24 | <24 | <23 |  | 
Cc1nc(N[C@H](C)c2cccc(C(F)(F)F)c2C)c2cn(C3CCOCC3)c(=O)cc2n1 [I-49] | 92 | 8.22 |  |  |  | 7.09 | 
Cc1nc(N[C@H](C)c2cccc3c2CCC3(F)F)c2cn(C3(C)CC3)c(=O)cc2n1 [I-57] | 87 | 8.70 |  |  |  | 7.20 | 
Cc1nc(N[C@H](C)c2cccc(C(C)(F)F)c2)c2cn(C3(C)CC3)c(=O)cc2n1 [I-50] | 82 | 8.05 | <24 | <24 | <23 |  | 
Cc1nc(N[C@H](C)c2cccc(C(F)(F)F)c2C)c2cn(C3(c4ccccc4)CCOCC3)c(=O)cc2n1 [I-127] | 97 |  |  |  |  |  | 7.64
Cc1nc(N[C@H](C)c2cccc(C(F)F)c2C)c2cn(C3(C)CC3)c(=O)cc2n1 [I-20] | 93 | 8.52 |  |  |  |  | 
C[C@@H](Nc1ncnc2cc(=O)n(C3(C)CC3)cc12)c1cccc(C(F)(F)F)c1 [I-75] | 86 | 7.82 |  |  |  |  | 
Cc1nc(N[C@H](C)c2cccc(C(F)F)c2C)c2cn(C3(C)CCOC3)c(=O)cc2n1 (stereo partly shown) [I-123] | 87 |  |  |  |  | 6.93 | 8.52
Cc1nc(N[C@H](C)c2cccc(C(F)F)c2F)c2cn([C@H]3C[C@H](F)C3)c(=O)c(F)c2n1 [I-84] |  | 8.10 | <24 | <24 | 29 |  | 
Cc1nc(N[C@H](C)c2cccc(C(F)F)c2F)c2cn(C3CC(F)(F)C3)c(=O)cc2n1 [I-13] |  | 7.96 | <24 | <24 | 52 |  | 
Cc1nc(N[C@H](C)c2cccc3c2OCC3(F)F)c2cn(C3(C)CC3)c(=O)cc2n1 [I-101] |  | 8.40 | 59 | 36 | <23 | 7.10 | 
Cc1nc(N[C@H](C)c2cccc(C(F)F)c2F)c2cn([C@]3(C(F)(F)F)CCOC3)c(=O)c(F)c2n1 [I-85] |  | 8.05 | 55 | 24 | <23 |  | 
Cc1nc(N[C@H](C)c2cccc(C(F)(F)C(C)(C)O)c2F)c2cn(C3(C)CC3)c(=O)c(F)c2n1 [I-88] |  | 8.70 | <24 | 24 | <23 |  | 
Cc1nc(N[C@H](C)c2cccc(C(F)F)c2F)c2cn([C@H](C)C(F)(F)F)c(=O)cc2n1 [I-10] |  | 7.96 | 41 | <24 | 40 |  | 
Cc1nc(N[C@H](C)c2cccc(C(C)(F)F)c2F)c2cn(C3(CF)CC3)c(=O)c(F)c2n1 [I-87] | 81 | 8.40 |  |  |  | 7.00 | 
Cc1c(=O)n(C2(C(F)F)CC2)cc2c(N[C@H](C)c3cccc(C(F)F)c3F)ncnc12 [I-163] | 82 |  |  |  |  |  | 7.82
Cc1nc(N[C@H](C)c2cccc(C(F)(F)F)c2C)c2cn(C3(C)CCOC3)c(=O)cc2n1 (stereo partly shown) [I-126] | 88 |  |  |  |  | 7.29 | 8.30
Cc1nc(N[C@H](C)c2cccc(C(F)(F)F)c2)c2cn(C3(C(F)F)CC3)c(=O)cc2n1 [I-97] |  | 7.85 | <24 | <24 | <23 | 7.09 | 
Cc1nc(N[C@H](C)c2cccc(C(F)(F)C(C)(C)O)c2F)c2cn(C3(C(F)F)CC3)c(=O)c(F)c2n1 [I-89] | 83 | 8.70 |  |  |  |  | 
Cc1nc(N[C@H](C)c2cccc(C(F)F)c2F)c2cn(C3(C(F)(F)F)CC3)c(=O)cc2n1 [I-4] |  | 8.10 | 46 | <24 | <23 |  | 
Cc1nc(N[C@H](C)c2cccc(C(F)F)c2F)c2cn([C@H]3C[C@@H]3C(F)F)c(=O)c(F)c2n1 [I-83] |  | 7.82 | <24 | <24 | 42 |  | 
